Results on 12 compounds are retold here after ChEMBL document CHEMBL5335778, “Bench-to-bedside: Innovation of small molecule anti-SARS-CoV-2 drugs in China” (Eur J Med Chem, 2023).

The nature of data set [1]: in vitro. The conditions noted are these: monkey, Vero E6 cells.
Data set [2] in a line: Selectivity index, ratio of CC50 for cytotoxicity against human HEp-2 cells to IC50 for antiviral activity against RSV A2 infected in human HEp-2 cells.
Data set [3] has as its system SARS-CoV. The data set can be described thus: Antiviral activity against SARS-CoV infected in Vero E6 cells assessed as reduction in viral replication measured after 48 hrs by qRT-PCR assay. In kind it is functional, organism-based. The conditions noted are these: Severe acute respiratory syndrome-related coronavirus, Vero C1008, 48 h.
The subject of data set [4] is SARS-CoV-2. In words: microbe, parasite or virus in culture. Particulars: Severe acute respiratory syndrome coronavirus 2, Vero C1008.
The subject of data set [5] is Ebolavirus. In words: Antiviral activity against EBOV infected in human Huh-7 cells assessed as reduction in viral replication. The conditions noted are these: Orthoebolavirus. In kind it is functional, organism-based.
Data set [6] deals with Respiratory syncytial virus. In words: Antiviral activity against Respiratory syncytial virus. In kind it is functional, organism-based. The conditions noted are these: human respiratory syncytial virus.
The subject of data set [7] is Middle East respiratory syndrome-related coronavirus. In words: Antiviral activity against MERS-CoV infected in HAE cells. In kind it is functional, organism-based.
Data set [8] deals with T1, Human immunodeficiency virus type 1 reverse transcriptase (Human immunodeficiency virus 1, UniProt Q72547). In words: Inhibition of HIV-1 reverse transcriptase associated RNA-dependent DNA polymerase.
Data set [9] relates to SARS-CoV-2. In words: Antiviral activity against SARS-CoV-2 […] infected in human 293TA cells assessed as reduction of viral growth measured after 48 hrs by luciferase assay. In kind it is functional, organism-based. The conditions noted are these: Severe acute respiratory syndrome coronavirus 2, 293TA.
Data set [10] concerns SARS-CoV-2. The data set can be described thus: Antiviral activity against SARS-CoV-2 […] B.1.617.2 delta infected in human 293TA cells assessed as reduction of viral growth measured after 48 hrs by luciferase assay. In kind it is functional, organism-based. Particulars: Severe acute respiratory syndrome coronavirus 2, 293TA.
Data set [11] relates to SARS-CoV-2. The data set can be described thus: Antiviral activity against SARS-CoV-2 B.1.1.7 Alpha infected in human Calu-3 cells assessed as inhibition of viral infection preincubated for 1 hr followed by viral infection measured after 48 hrs by Hoechst 33342 staining based analysis. Particulars: Severe acute respiratory syndrome coronavirus 2, B.1.1.7, Calu-3. In kind it is functional, organism-based.

For data set [12], the system named is SARS-CoV-2. In words: Antiviral activity against SARS-CoV-2 Omicron assessed as reduction of viral growth. Particulars: Severe acute respiratory syndrome coronavirus 2, Omicron. In kind it is functional, organism-based.
The target in data set [13] is Human immunodeficiency virus type 1 protease (Human immunodeficiency virus 1, UniProt Q72874). The data set can be described thus: Inhibition of HIV-1 protease.
For data set [14], the system named is Human immunodeficiency virus 2. In words: Antiviral activity against HIV-2 D194 infected in PBMC assessed as inhibition of viral growth. In kind it is functional, organism-based. Particulars: Human immunodeficiency virus 2, D194, PBMC.
Data set [15] has as its target T1, Human immunodeficiency virus type 1 reverse transcriptase. The data set can be described thus: Inhibition of wild type HIV-1 reverse transcriptase.
Data set [16] addresses Hepatitis C virus NS5B RNA-dependent RNA polymerase (Hepatitis C virus, UniProt Q8JXU8). In words: Inhibition of Hepatitis C virus NS5B polymerase. More on the design: species or system Hepacivirus hominis.
The subject of data set [17] is SARS-CoV. In words: Antiviral activity against SARS-CoV-1 infected in African green monkey Vero E6 cells expressing TMPRSS2. Particulars: Severe acute respiratory syndrome-related coronavirus, Vero C1008. In kind it is functional, organism-based.
In data set [18] the test system is SARS-CoV-2. In words: Antiviral activity against SARS-CoV-2 infected in African green monkey Vero E6 cells expressing TMPRSS2 assessed as reduction in virus-induced cytopathic effect measured after 48 hrs by cellular ATP assay. In kind it is functional, organism-based. Particulars: Severe acute respiratory syndrome coronavirus 2, Vero C1008, 48 h.
Data set [19] deals with Human immunodeficiency virus 1. In words: Antiviral activity against HIV-1 3B infected in human MT4 cells assessed as reduction in virus-induced cytopathic effect incubated for 5 days by MTT assay. In kind it is functional, organism-based. The conditions noted are these: Human immunodeficiency virus 1, 3B, MT4, 120 h.
The nature of data set [20]: Oral bioavailability in rat. In kind it is ADME, organism-based. Particulars: in vivo.
Data set [21] in a line: Cytotoxicity against human MT4 cells assessed as reduction in cell viability treated for 5 days by MTT assay. The conditions noted are these: time 5 day. In kind it is toxicity, cell-based.
Data set [22] is described as follows: Oral bioavailability in beagle dog at 2 mg/kg. Particulars: in vivo. In kind it is ADME, organism-based, Canis lupus familiaris.
Data set [23] deals with SARS-CoV-2. In words: Antiviral activity against SARS-CoV-2 assessed as inhibition of viral replication. In kind it is functional, organism-based. The conditions noted are these: Severe acute respiratory syndrome coronavirus 2.
In data set [24] the test system is Human coronavirus OC43. The data set can be described thus: Antiviral activity against HCoV-OC43. In kind it is functional, organism-based. The conditions noted are these: Betacoronavirus 1.

Bounds are passed on as bounds.

Sequence of Hepatitis C virus NS5B RNA-dependent RNA polymerase (Q8JXU8 whole entry): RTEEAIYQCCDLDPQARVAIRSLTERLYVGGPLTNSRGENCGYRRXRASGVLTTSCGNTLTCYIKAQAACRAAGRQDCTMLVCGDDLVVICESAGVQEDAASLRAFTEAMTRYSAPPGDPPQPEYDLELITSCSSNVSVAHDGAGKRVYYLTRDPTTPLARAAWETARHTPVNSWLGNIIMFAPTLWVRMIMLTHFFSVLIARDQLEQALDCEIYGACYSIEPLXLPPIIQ

As to `CCC(CC)COC(=O)[C@H](C)N[P@](=O)(OC[C@H]1O[C@@](C#N)(c2ccc3c(N)ncnn23)[C@H](O)[C@@H]1O)Oc1ccccc1`, the results for the selectivity ratio in [1] and in data set [2] were over 100 and 395, respectively. Moreover, the EC50 in data set [3] came out at 69 nM; in data set [4], 770 nM; in data set [5] it was 12 nM; in [6], 21 nM; in data set [7] it was 25 nM.

In data set [8], `C[C@@]1(O)[C@H](O)[C@@H](CO)O[C@H]1n1ccc(N)nc1=O` returned an IC50 of 1050 nM.

As to `O=C[C@H](C[C@@H]1CCNC1=O)NC(=O)[C@H](CC1CCCCC1)NC(=O)c1cc2ccccc2[nH]1`, the EC50 in data set [9] amounted to 280 nM; in data set [10], 270 nM; in data set [11] it was 390 nM; in data set [12] it was 33 nM.

`CC(C)(C)[C@H](NC(=O)C(F)(F)F)C(=O)N1C[C@H]2[C@@H]([C@H]1C(=O)N[C@H](C#N)C[C@@H]1CCNC1=O)C2(C)C`: the EC50 in data set [9] worked out at 490 nM; in [10] it was 780 nM; in [11] it was 820 nM; in [12], 33 nM.

Take `O=C[C@H](C[C@@H]1CCNC1=O)NC(=O)[C@H](Cc1ccccc1)NC(=O)c1cc2ccccc2[nH]1`: the EC50 in data set [12] was 33 nM.

Regarding `[N-]=[N+]=N[C@]1(CO)O[C@@H](n2ccc(N)nc2=O)[C@@H](O)[C@@H]1O`, the IC50 was determined as 171 nM in data set [13] and 1280 nM in data set [16]. In addition, the EC50 in [14] came to 0.018 nM; in data set [15] it was 0.03 nM.

For `[2H][C@](C(=O)N[C@@H](C)c1ccc(F)cc1)(c1cccnc1)N(C(=O)C(C)=O)c1ccc2c(c1)oc1ccccc12`, in data set [12], the EC50 came out at 33 nM.

Take `O=C(NCc1cccs1)[C@@H]1CN(C(=O)c2cccnc2)CCN1c1ccc(Cl)c(Cl)c1`: in [12], the EC50 turned out to be 33 nM.

Take `Cn1cnc(Cn2c(=O)[nH]/c(=N\c3cc4cn(C)nc4cc3Cl)n(Cc3cc(F)c(F)cc3F)c2=O)n1`: the EC50 in data set [17] was 1900 nM; in data set [18], 350 nM.

As for `O=C[C@H](C[C@@H]1CCNC1=O)NC(=O)[C@@H]1[C@H]2CCC[C@H]2CN1C(=O)CCc1cc(F)cc(F)c1`, the EC50 in data set [12] worked out at 33 nM.

As for `[2H]c1cc([C@]2(C#N)O[C@H](COC(=O)C(C)C)[C@@H](OC(=O)C(C)C)[C@H]2OC(=O)C(C)C)n2ncnc(N)c12`, the EC50 in [19] is 350 nM. The compound also gave a bioavailability in [20] of 49.9%. Besides, the CC50 at 120 h in data set [21] stood at 280000 nM.

The compound `[N-]=[N+]=N[C@]1(COP(=O)(O)OP(=O)(O)OP(=O)(O)O)O[C@@H](n2ccc(N)nc2=O)[C@@H](F)[C@@H]1O` had a bioavailability in data set [22] of 82.7%. Moreover, the EC50 in data set [23] came to 1200 nM; in data set [24] it was 4300 nM; in [14] it was 0.018 nM; in [15], 0.03 nM.
